In the NIST ThermoML archive (doi:10.1016/j.tca.2005.11.041):

Assay: excess molar enthalpy (molar enthalpy of mixing); xn = mol fraction of the nth substance listed
Settings: 298.15 K, Liquid, Flow calorimetry

COC=O [methyl methanoate] + CCCCCO
Settings	excess molar enthalpy [kcal/mol]
5000 kPa, x1 = 0.0507	0.1315
5000 kPa, x1 = 0.0997	0.2364
5000 kPa, x1 = 0.1503	0.3231
5000 kPa, x1 = 0.2004	0.3893
5000 kPa, x1 = 0.2494	0.4395
5000 kPa, x1 = 0.2991	0.4781
5000 kPa, x1 = 0.3496	0.5052
5000 kPa, x1 = 0.4005	0.5217
5000 kPa, x1 = 0.4488	0.5278
5000 kPa, x1 = 0.4998	0.5254
5000 kPa, x1 = 0.5506	0.5101
5000 kPa, x1 = 0.6009	0.493
5000 kPa, x1 = 0.6503	0.4643
5000 kPa, x1 = 0.6986	0.4309
5000 kPa, x1 = 0.7492	0.3859
5000 kPa, x1 = 0.7983	0.3299
5000 kPa, x1 = 0.8497	0.2628
5000 kPa, x1 = 0.8992	0.181
5000 kPa, x1 = 0.9509	0.08525
10000 kPa, x1 = 0.0505	0.1287
10000 kPa, x1 = 0.0994	0.2336
10000 kPa, x1 = 0.1499	0.3196
10000 kPa, x1 = 0.1998	0.386
10000 kPa, x1 = 0.251	0.438
10000 kPa, x1 = 0.3009	0.476
10000 kPa, x1 = 0.3488	0.5032
10000 kPa, x1 = 0.3997	0.5192
10000 kPa, x1 = 0.4509	0.5253
10000 kPa, x1 = 0.499	0.5227
10000 kPa, x1 = 0.5498	0.5116
10000 kPa, x1 = 0.6001	0.4941
10000 kPa, x1 = 0.6496	0.4661
10000 kPa, x1 = 0.7017	0.4273
10000 kPa, x1 = 0.7486	0.3851
10000 kPa, x1 = 0.802	0.3276
10000 kPa, x1 = 0.8493	0.2631
10000 kPa, x1 = 0.8988	0.1821
10000 kPa, x1 = 0.9507	0.0824

COC=O [methyl methanoate] + CCCCO
Settings	excess molar enthalpy [kcal/mol]
5000 kPa, x1 = 0.0501	0.1057
5000 kPa, x1 = 0.1	0.1987
5000 kPa, x1 = 0.1496	0.2737
5000 kPa, x1 = 0.2	0.3348
5000 kPa, x1 = 0.2496	0.3818
5000 kPa, x1 = 0.2999	0.4177
5000 kPa, x1 = 0.3508	0.4426
5000 kPa, x1 = 0.4004	0.459
5000 kPa, x1 = 0.4503	0.4661
5000 kPa, x1 = 0.5003	0.4654
5000 kPa, x1 = 0.5505	0.4566
5000 kPa, x1 = 0.6006	0.4399
5000 kPa, x1 = 0.6505	0.4136
5000 kPa, x1 = 0.7002	0.3807
5000 kPa, x1 = 0.7494	0.3421
5000 kPa, x1 = 0.8004	0.2897
5000 kPa, x1 = 0.8509	0.2321
5000 kPa, x1 = 0.9006	0.162
5000 kPa, x1 = 0.9495	0.0826
10000 kPa, x1 = 0.05	0.1054
10000 kPa, x1 = 0.0997	0.1979
10000 kPa, x1 = 0.1506	0.2747
10000 kPa, x1 = 0.1994	0.3337
10000 kPa, x1 = 0.2505	0.3818
10000 kPa, x1 = 0.2992	0.4163
10000 kPa, x1 = 0.35	0.4416
10000 kPa, x1 = 0.3996	0.4564
10000 kPa, x1 = 0.4495	0.464
10000 kPa, x1 = 0.4995	0.4626
10000 kPa, x1 = 0.5497	0.4531
10000 kPa, x1 = 0.5998	0.4355
10000 kPa, x1 = 0.6498	0.4104
10000 kPa, x1 = 0.6995	0.3791
10000 kPa, x1 = 0.7511	0.337
10000 kPa, x1 = 0.7999	0.288
10000 kPa, x1 = 0.8505	0.2283
10000 kPa, x1 = 0.9003	0.1592
10000 kPa, x1 = 0.9493	0.07925

COC=O [methyl methanoate] + CC(C)O
Settings	excess molar enthalpy [kcal/mol]
5000 kPa, x1 = 0.0399	0.08475
5000 kPa, x1 = 0.0822	0.1674
5000 kPa, x1 = 0.1235	0.2356
5000 kPa, x1 = 0.1656	0.2947
5000 kPa, x1 = 0.2102	0.3451
5000 kPa, x1 = 0.2556	0.3878
5000 kPa, x1 = 0.3	0.4214
5000 kPa, x1 = 0.3471	0.4472
5000 kPa, x1 = 0.3951	0.4659
5000 kPa, x1 = 0.444	0.4756
5000 kPa, x1 = 0.4938	0.4777
5000 kPa, x1 = 0.5447	0.4726
5000 kPa, x1 = 0.5965	0.4596
5000 kPa, x1 = 0.6494	0.4357
5000 kPa, x1 = 0.7055	0.3992
5000 kPa, x1 = 0.7606	0.3557
5000 kPa, x1 = 0.8191	0.2934
5000 kPa, x1 = 0.8766	0.223
5000 kPa, x1 = 0.9376	0.1214
10000 kPa, x1 = 0.0398	0.0857
10000 kPa, x1 = 0.082	0.1675
10000 kPa, x1 = 0.1232	0.2355
10000 kPa, x1 = 0.1651	0.2936
10000 kPa, x1 = 0.2096	0.3446
10000 kPa, x1 = 0.2549	0.3862
10000 kPa, x1 = 0.2993	0.4185
10000 kPa, x1 = 0.3463	0.4443
10000 kPa, x1 = 0.3943	0.4624
10000 kPa, x1 = 0.4432	0.4723
10000 kPa, x1 = 0.493	0.4745
10000 kPa, x1 = 0.5439	0.4703
10000 kPa, x1 = 0.5957	0.4555
10000 kPa, x1 = 0.6487	0.4324
10000 kPa, x1 = 0.7048	0.3963
10000 kPa, x1 = 0.76	0.351
10000 kPa, x1 = 0.8186	0.2901
10000 kPa, x1 = 0.8762	0.2164
10000 kPa, x1 = 0.9374	0.118
